Test results taken from patent US20040048376A1, “Methods for modulating splicing and/or alternative splicing, and for identifying alternatively spliced units in genes” (priority 2000, published 2004).

What was measured:
[1] = system: 5′ splice site selection, hnRNP A1 independent; assay: In vitro splicing where distal 5′ splice site selection is promoted by an hnRNP A1 independent mechanism (secondary structure formation); format: biochemical
Text: DMSO was shown not to affect constitutive (generic) splicing in nuclear extracts. […] When distal 5′ splice site selection is promoted by an hnRNP A1 independent mechanism (e.g., secondary structure formation), 5′ splice site selection is not affected by DMSO. […] This effect is also specific since the addition of equivalent amounts of GST or gene 32 protein has no effect when added to DMSO-containing extracts. In addition, DMSO affects generic splicing in S-100 extracts which are post-nuclear extracts containing residual amounts of SR proteins and U2AF proteins.

[2] = system: splicing complexes in S100 extract; assay: Splicing complex formation in S100 extract, native gel analysis; format: biochemical, human; conditions: data not shown
Text: U2AF^65 also activates splicing when added to a HeLa S100 extract. […] Thus, DMSO and related compounds not only affect alternative splicing but can also affect generic splicing. The level of DMSO-dependent splicing stimulation varied considerably in different preparations of S100 extract. […] Our group has shown previously that distal 5′ splice site selection on this pre-mRNA requires hnRNP A1 (Blanchette, M. and Chabot, B., 1999, supra). The failure to activate distal 5′ splice site use is probably due to the fact that S100 extracts contain small amounts of hnRNP A/B proteins as compared to nuclear extracts (not shown).
Nuclear extracts and S100 extracts were prepared according to the procedure of Dignam et al., 1983, supra (see Example 1). The splicing reactions were set-up according to Krainer et al. 1985 (Cell 42, 725-736) and Eperon et al., 1994, supra. Labeled pre-mRNAs were prepared as described in Chabot 1994, supra. DMSO was added to splicing reactions before incubation to obtain a final concentration of DMSO between 1% to 5%. (The optimal concentration of DMSO depends on the extract and has to be determined empirically for each extract). The mixtures were incubated at 30° C. between 5 min to 1 hour and the splicing complexes were fractionated on gels using the following procedure:
a) a 4 μl aliquot was removed from the reaction mixture and 1 μl of heparin (1 mg/ml) was added. […]

[3] = system: model pre-mRNA carrying two copies of the 5′ splice site of exon 7; assay: In vitro splicing of model pre-mRNA carrying two copies of the 5′ splice site of exon 7; format: biochemical; conditions: pre-mRNA with two copies of the 5′ splice site of exon 7
Text: The effect of DMSO on 5′ splice site selection was as strong on a pre-mRNA that was synthesized in the absence of cap analogue (not shown). Thus, the reduction in distal 5′ splice site usage was independent of the cap structure at the 5′ end of the pre-mRNA. […] Thus, DMSO needs to be present in the splicing mixtures to affect splice site selection.

Structure (SMILES): C[S+](C)[O-] [DMSO, Dimethyl sulfoxide]
- 5′ splice site selection promoted by hnRNP A1 independent mechanism [1]: not affected
- formation of complexes in S100 extract [2]: stimulated the formation of complexes
- 5′ splice site selection [3]: also affected 5′ splice site selection
